Measured values from PMC6639057 (Investigational new drugs, 2018).

System: patients with advanced solid tumors
Experiment: Adverse events
[1] = escalation 35 mg + G-CSF (n = 3)
[2] = escalation 40 mg + G-CSF (n = 11)
[3] = escalation 50 mg + G-CSF (n = 4)
[4] = escalation 1, 2, 4, 8 mg (n = 4)
[5] = expansion 40 mg + G-CSF, CRPC (n = 12)
[6] = expansion 40 mg + G-CSF, OC (n = 29)
[7] = expansion 40 mg + G-CSF, TNBC (n = 14)

With `Cc1csc(-c2nnc(Nc3ccc(Oc4ncccc4-c4ccnc(N)n4)cc3)c3ccccc23)c1` [AMG 900] the “All treatment-related AEs” value [1] was 3 (100) n (%), the “Fatal AEs” value [1] was 0 n (%) and the “Grade ≥ 3 AEs” value [1] was 2 (67) n (%). For the same molecule, the “Grade ≥ 3 treatment-related AEs” value [1] was 2 (67) n (%), the “Grade ≥ 3 treatment-related AEs: Anemia” value [1] was 0 n (%) and the “Grade ≥ 3 treatment-related AEs: Diarrhea” value [1] was 0 n (%). For the same molecule, the “Grade ≥ 3 treatment-related AEs: Fatigue” value [1] was 0 n (%), the “Grade ≥ 3 treatment-related AEs: Febrile neutropenia” value [1] was 0 n (%) and the “Grade ≥ 3 treatment-related AEs: Hemoglobin decreased” value [1] was 0 n (%). The “Grade ≥ 3 treatment-related AEs: Leukopenia” value [1] was 1 (33) n (%), the “Grade ≥ 3 treatment-related AEs: Lymphopenia” value [1] was 0 n (%) and the “Grade ≥ 3 treatment-related AEs: Nausea” value [1] was 0 n (%). For the same molecule, the “Grade ≥ 3 treatment-related AEs: Neutropenia” value [1] was 1 (33) n (%), the “Grade ≥ 3 treatment-related AEs: Thrombocytopenia” value [1] was 0 n (%) and the “Grade ≥ 3 treatment-related AEs: Vomiting” value [1] was 1 (33) n (%). For the same molecule, the “Grade ≥ 3 treatment-related AEs: White blood cell count decreased” value [1] was 0 n (%), the “Grade ≥ 4 AEs” value [1] was 1 (33) n (%) and the “Serious AEs” value [1] was 1 (33) n (%). The “AEs leading to discontinuation of AMG 900” value (“AEs leading” below) [2] was 2 (18) n (%), the “All treatment-emergent AEs” value [2] was 11 (100) n (%) and the “All treatment-related AEs” value [2] was 10 (91) n (%). For the same molecule, the “Fatal AEs” value [2] was 0 n (%), the “Grade ≥ 3 AEs” value [2] was 8 (73) n (%) and the “Grade ≥ 3 treatment-related AEs” value [2] was 6 (55) n (%). The “Grade ≥ 3 treatment-related AEs: Anemia” value [2] was 0 n (%), the “Grade ≥ 3 treatment-related AEs: Diarrhea” value [2] was 2 (18) n (%) and the “Grade ≥ 3 treatment-related AEs: Fatigue” value [2] was 0 n (%). The “Grade ≥ 3 treatment-related AEs: Febrile neutropenia” value [2] was 2 (18) n (%), the “Grade ≥ 3 treatment-related AEs: Hemoglobin decreased” value [2] was 0 n (%) and the “Grade ≥ 3 treatment-related AEs: Leukopenia” value [2] was 1 (9) n (%). The “Grade ≥ 3 treatment-related AEs: Lymphopenia” value [2] was 1 (9) n (%), the “Grade ≥ 3 treatment-related AEs: Nausea” value [2] was 0 n (%) and the “Grade ≥ 3 treatment-related AEs: Neutropenia” value [2] was 5 (46) n (%). The “Grade ≥ 3 treatment-related AEs: Thrombocytopenia” value [2] was 1 (9) n (%), the “Grade ≥ 3 treatment-related AEs: Vomiting” value [2] was 0 n (%) and the “Grade ≥ 3 treatment-related AEs: White blood cell count decreased” value [2] was 0 n (%). The “Grade ≥ 4 AEs” value [2] was 4 (36) n (%), the “Serious AEs” value [2] was 3 (27) n (%) and the “AEs leading” value [3] was 2 (50) n (%). The “All treatment-emergent AEs” value [3] was 4 (100) n (%), the “All treatment-related AEs” value [3] was 4 (100) n (%) and the “Fatal AEs” value [3] was 1 (25) n (%). The “Grade ≥ 3 AEs” value [3] was 3 (75) n (%), the “Grade ≥ 3 treatment-related AEs” value [3] was 3 (75) n (%) and the “Grade ≥ 3 treatment-related AEs: Anemia” value [3] was 1 (25) n (%). For the same molecule, the “Grade ≥ 3 treatment-related AEs: Diarrhea” value [3] was 0 n (%), the “Grade ≥ 3 treatment-related AEs: Fatigue” value [3] was 2 (50) n (%) and the “Grade ≥ 3 treatment-related AEs: Febrile neutropenia” value [3] was 1 (25) n (%). The “Grade ≥ 3 treatment-related AEs: Hemoglobin decreased” value [3] was 0 n (%), the “Grade ≥ 3 treatment-related AEs: Leukopenia” value [3] was 1 (25) n (%) and the “Grade ≥ 3 treatment-related AEs: Lymphopenia” value [3] was 0 n (%). The “Grade ≥ 3 treatment-related AEs: Nausea” value [3] was 0 n (%), the “Grade ≥ 3 treatment-related AEs: Neutropenia” value [3] was 1 (25) n (%) and the “Grade ≥ 3 treatment-related AEs: Thrombocytopenia” value [3] was 1 (25) n (%). The “Grade ≥ 3 treatment-related AEs: Vomiting” value [3] was 0 n (%), the “Grade ≥ 3 treatment-related AEs: White blood cell count decreased” value [3] was 0 n (%) and the “Grade ≥ 4 AEs” value [3] was 2 (50) n (%). The “Serious AEs” value [3] was 2 (50) n (%), the “AEs leading” value [4] was 0 n (%) and the “All treatment-emergent AEs” value [4] was 4 (100) n (%). For the same molecule, the “All treatment-related AEs” value [4] was 3 (75) n (%), the “Fatal AEs” value [4] was 0 n (%) and the “Grade ≥ 3 AEs” value [4] was 1 (25) n (%). For the same molecule, the “Grade ≥ 3 treatment-related AEs” value [4] was 1 (25) n (%), the “Grade ≥ 3 treatment-related AEs: Anemia” value [4] was 1 (25) n (%) and the “Grade ≥ 3 treatment-related AEs: Diarrhea” value [4] was 0 n (%). The “Grade ≥ 3 treatment-related AEs: Fatigue” value [4] was 0 n (%), the “Grade ≥ 3 treatment-related AEs: Febrile neutropenia” value [4] was 0 n (%) and the “Grade ≥ 3 treatment-related AEs: Hemoglobin decreased” value [4] was 0 n (%). The “Grade ≥ 3 treatment-related AEs: Leukopenia” value [4] was 0 n (%), the “Grade ≥ 3 treatment-related AEs: Lymphopenia” value [4] was 0 n (%) and the “Grade ≥ 3 treatment-related AEs: Nausea” value [4] was 0 n (%). The “Grade ≥ 3 treatment-related AEs: Neutropenia” value [4] was 0 n (%), the “Grade ≥ 3 treatment-related AEs: Thrombocytopenia” value [4] was 0 n (%) and the “Grade ≥ 3 treatment-related AEs: Vomiting” value [4] was 0 n (%). For the same molecule, the “Grade ≥ 3 treatment-related AEs: White blood cell count decreased” value [4] was 0 n (%), the “Grade ≥ 4 AEs” value [4] was 0 n (%) and the “Serious AEs” value [4] was 0 n (%). For the same molecule, the “AEs leading” value [5] was 3 (25) n (%), the “All treatment-emergent AEs” value [5] was 12 (100) n (%) and the “All treatment-related AEs” value [5] was 12 (100) n (%). The “Fatal AEs” value [5] was 0 n (%), the “Grade ≥ 3 AEs” value [5] was 9 (75) n (%) and the “Grade ≥ 3 treatment-related AEs” value [5] was 6 (50) n (%). The “Grade ≥ 3 treatment-related AEs: Anemia” value [5] was 2 (17) n (%), the “Grade ≥ 3 treatment-related AEs: Diarrhea” value [5] was 0 n (%) and the “Grade ≥ 3 treatment-related AEs: Fatigue” value [5] was 2 (17) n (%). For the same molecule, the “Grade ≥ 3 treatment-related AEs: Febrile neutropenia” value [5] was 0 n (%), the “Grade ≥ 3 treatment-related AEs: Hemoglobin decreased” value [5] was 1 (8) n (%) and the “Grade ≥ 3 treatment-related AEs: Leukopenia” value [5] was 0 n (%). The “Grade ≥ 3 treatment-related AEs: Lymphopenia” value [5] was 1 (8) n (%), the “Grade ≥ 3 treatment-related AEs: Nausea” value [5] was 2 (17) n (%) and the “Grade ≥ 3 treatment-related AEs: Neutropenia” value [5] was 3 (25) n (%). The “Grade ≥ 3 treatment-related AEs: Thrombocytopenia” value [5] was 1 (8) n (%), the “Grade ≥ 3 treatment-related AEs: Vomiting” value [5] was 0 n (%) and the “Grade ≥ 3 treatment-related AEs: White blood cell count decreased” value [5] was 0 n (%). The “Grade ≥ 4 AEs” value [5] was 2 (17) n (%), the “Serious AEs” value [5] was 4 (33) n (%) and the “AEs leading” value [6] was 5 (17) n (%). The “All treatment-emergent AEs” value [6] was 29 (100) n (%), the “All treatment-related AEs” value [6] was 28 (97) n (%) and the “Fatal AEs” value [6] was 0 n (%). For the same molecule, the “Grade ≥ 3 AEs” value [6] was 25 (86) n (%), the “Grade ≥ 3 treatment-related AEs” value [6] was 22 (76) n (%) and the “Grade ≥ 3 treatment-related AEs: Anemia” value [6] was 12 (41) n (%). For the same molecule, the “Grade ≥ 3 treatment-related AEs: Diarrhea” value [6] was 1 (3) n (%), the “Grade ≥ 3 treatment-related AEs: Fatigue” value [6] was 1 (3) n (%) and the “Grade ≥ 3 treatment-related AEs: Febrile neutropenia” value [6] was 6 (21) n (%). For the same molecule, the “Grade ≥ 3 treatment-related AEs: Hemoglobin decreased” value [6] was 2 (7) n (%), the “Grade ≥ 3 treatment-related AEs: Leukopenia” value [6] was 3 (10) n (%) and the “Grade ≥ 3 treatment-related AEs: Lymphopenia” value [6] was 1 (3) n (%). For the same molecule, the “Grade ≥ 3 treatment-related AEs: Nausea” value [6] was 0 n (%), the “Grade ≥ 3 treatment-related AEs: Neutropenia” value [6] was 17 (59) n (%) and the “Grade ≥ 3 treatment-related AEs: Thrombocytopenia” value [6] was 6 (21) n (%). For the same molecule, the “Grade ≥ 3 treatment-related AEs: Vomiting” value [6] was 1 (3) n (%), the “Grade ≥ 3 treatment-related AEs: White blood cell count decreased” value [6] was 2 (7) n (%) and the “Grade ≥ 4 AEs” value [6] was 12 (41) n (%). The “Serious AEs” value [6] was 14 (48) n (%), the “AEs leading” value [7] was 5 (36) n (%) and the “All treatment-emergent AEs” value [7] was 14 (100) n (%). The “All treatment-related AEs” value [7] was 13 (93) n (%), the “Fatal AEs” value [7] was 3 (21) n (%) and the “Grade ≥ 3 AEs” value [7] was 11 (79) n (%). For the same molecule, the “Grade ≥ 3 treatment-related AEs” value [7] was 6 (43) n (%), the “Grade ≥ 3 treatment-related AEs: Anemia” value [7] was 4 (29) n (%) and the “Grade ≥ 3 treatment-related AEs: Diarrhea” value [7] was 1 (7) n (%). The “Grade ≥ 3 treatment-related AEs: Fatigue” value [7] was 0 n (%), the “Grade ≥ 3 treatment-related AEs: Febrile neutropenia” value [7] was 1 (7) n (%) and the “Grade ≥ 3 treatment-related AEs: Hemoglobin decreased” value [7] was 0 n (%). The “Grade ≥ 3 treatment-related AEs: Leukopenia” value [7] was 0 n (%), the “Grade ≥ 3 treatment-related AEs: Lymphopenia” value [7] was 0 n (%) and the “Grade ≥ 3 treatment-related AEs: Nausea” value [7] was 1 (7) n (%). The “Grade ≥ 3 treatment-related AEs: Neutropenia” value [7] was 4 (29) n (%), the “Grade ≥ 3 treatment-related AEs: Thrombocytopenia” value [7] was 1 (7) n (%) and the “Grade ≥ 3 treatment-related AEs: Vomiting” value [7] was 0 n (%). For the same molecule, the “Grade ≥ 3 treatment-related AEs: White blood cell count decreased” value [7] was 0 n (%), the “Grade ≥ 4 AEs” value [7] was 5 (36) n (%) and the “Serious AEs” value [7] was 7 (50) n (%).
